Reference: patent US20230068687A1, “PROCESS FOR PREPARING A SOLID FORM OF BASIC AMINO ACID SALTS OF POLYUNSATURATED FATTY ACIDS” (SILICYCLE INC., priority 2020, published 2023)

Experiments:
[1] = Oxidative status (peroxide value, anisidine value) of starting materials and products as obtained, CDR FoodLab Junior analyzer; assay type: physicochemical; details: as obtained / as used, before storage
Experimental: The final product in powder form is isolated by evaporating said first and second organic solvents and water from the reaction mixture to recover said basic amino acid salts of PUFAs. Preferably, said evaporation step is carried under reduced pressure between about 0° C.-70° C. depending on the properties of the equipment used. […] The evaporation step requires said first/second organic solvents and water to be in a liquid form, thereby excluding the freeze-drying methods that require the solvents to be frozen. The oxidative status of the obtained final product is quantified by peroxide value (PV), anisidine value (AV) and Totox value. PV is a measure of the level of the primary oxidation products (lipid hydroperoxides) in the product, which is specified in milliequivalents O2 per kg of sample, while the AV is an unspecific measure of saturated and unsaturated carbonyl compounds. Totox is calculated by the equation Totox=2*PV+AV.
(§1) Food Lab Analyzer: Among several techniques known in the art for determining the oxidative levels of a sample, CDR FoodLab® Junior analyzer is used herein for determining PV and AV. The procedures are described as below.
(§2) The solid product 0.5 g was dissolved in 2 mL of MeOH and HCl solution with the ratio of 1:10 (v/v). The mixture was stirred for 5 minutes, followed by the addition of 5 mL of water. The mixture was extracted with 3 mL of Hexane containing 100 ppm butylated hydroxytoluene (BHT). The organic layer was dried over MgSO4, filtrated and evaporated under reduced pressure at the temperature of 0-70° C. to get the fish oil in free acid form, which was evaluated with the CDR FoodLab® Junior analyzer to get anisidine and peroxide values using the Food Lab analyzer.

[2] = Stability examination of L-lysine salts stored in clear vials with closed lids at room temperature (Table 1); assay type: physicochemical; details: for TOTOX: Totox=2*PV+AV; for AV / PV: closed lids, room temperature
Experimental: The comparison of oxidative status of basic amino acid salts of PUFAs, starting material in ester form and fish oil in free acid form are assessed by measuring the PV and AV, then all the samples are subjected to the same oxidizing condition over a certain period of time, followed by the measuring PV and AV of the samples. The oxidizing conditions are selected from one of: 1) storage in closed containers at atmospheric condition, opened once daily for the first month, twice weekly for the second month, once weekly for the third month and twice a month up to 6 months; 2) storage in loosely closed containers exposed to air at 45° C. for 1 month.
as §1, §2
(§3) The molar ratio of EPA to L-lysine was 1:1. The mixture was stirred at atmospheric condition for 5 minutes to obtain a homogenous solution. 30 mL of ethanol was added to precipitate the L-lysine amino acid salt. […] About 4.5 g of EPA-Lys was stored in a 20 ml of clear vial with a diameter of 27 mm, which was placed with closed lids on the bench at room temperature for the stability examination for 90 days.
as §3, with “ratio of DHA to L-lysine” for “ratio of EPA to L-lysine”
The molar ratio of seal oil in free acid form to L-lysine was 1:1. The mixture was stirred at atmospheric condition for 5 minutes to obtain a homogenous solution. 35 mL of ethanol was added to precipitate the L-lysine amino acid salt.

Structure (SMILES): CC/C=C\C/C=C\C/C=C\C/C=C\C/C=C\C/C=C\CCC(=O)O.NCCCC[C@H](N)C(=O)O [DHA-Lys, L-Lysine Salt of Docosahexaenoic Acid]
- AV (anisidine value) [1]: 29.3 A/g
- PV (peroxide value) [1]: 16.0 meqO2/kg
- TOTOX ([2]; Time 1 d): 61.3
- AV ([2]; Time 1 d): 29.3 A/g
- PV ([2]; Time 1 d): 16.0 meq O2/Kg
- TOTOX ([2]; Time 61 d): 11.8
- AV ([2]; Time 61 d): 4.0 A/g
- PV ([2]; Time 61 d): 3.9 meq O2/Kg

Structure (SMILES): CC/C=C\C/C=C\C/C=C\C/C=C\C/C=C\CCCC(=O)O.NCCCC[C@H](N)C(=O)O [EPA-Lys, L-Lysine Salt of Eicosapentaenoic Acid]
- AV (anisidine value) [1]: 9.5 A/g
- PV (peroxide value) [1]: 6.0 meqO2/kg
- TOTOX ([2]; Time 1 d): 21.5
- AV ([2]; Time 1 d): 9.5 A/g
- PV ([2]; Time 1 d): 6.0 meq O2/Kg
- TOTOX ([2]; Time 61 d): 3.8
- AV ([2]; Time 61 d): <0.5 A/g
- PV ([2]; Time 61 d): 1.9 meq O2/Kg
